pKi: −log10 of the molar value.
Assays:
MMP-3 = biological target: T1, MMP-3 (Homo sapiens, UniProt P08254); assay: Determination of inhibition constant (Ki) for MMP-3, fluorogenic substrate; assay type: biochemical; conditions: footnote: results are identical for MMP-1, MMP-2, MMP-3, MMP-13 and MMP-14, read-out: MMP Ki app
T1 construct: The active MMP-3 was obtained by treatment of proMMP-3 with trypsin; endogenous in cells; host or cells: human rheumatoid synovial fibroblasts stimulated with macrophage-conditioned medium (secreted proenzyme purified from the medium)
T1 sequence (P08254 100-477): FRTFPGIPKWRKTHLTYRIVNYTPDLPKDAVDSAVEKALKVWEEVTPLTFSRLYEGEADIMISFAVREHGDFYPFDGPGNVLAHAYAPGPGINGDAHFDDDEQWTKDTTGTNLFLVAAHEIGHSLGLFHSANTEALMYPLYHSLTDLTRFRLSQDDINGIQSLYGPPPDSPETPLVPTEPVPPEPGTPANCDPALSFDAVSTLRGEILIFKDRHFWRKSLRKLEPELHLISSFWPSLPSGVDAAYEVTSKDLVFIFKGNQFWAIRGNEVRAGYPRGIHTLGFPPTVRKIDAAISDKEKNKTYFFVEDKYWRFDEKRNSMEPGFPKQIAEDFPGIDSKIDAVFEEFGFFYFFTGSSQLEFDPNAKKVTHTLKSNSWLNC
Description: ProMMP-3 (EC 3.4.24.17; Stromelysin-1) was purified from culture medium of human rheumatoid synovial fibroblasts stimulated with macrophage-conditioned medium according to Okada, Y. et al., J. Biol. Chem. 261, 14245-14255 (1986). The active MMP-3 was obtained by treatment of proMMP-3 with trypsin (5 μg/mL) at 37° C. for 30 minutes, followed by addition of soybean trypsin inhibitor (50 μg/mL). Aliquots of the activated MMP-3 were stored at −20° C.
The activated MMP-3 is assayed using a fluorogenic substrate, Mca-Pro-Leu-Gly-Leu-Dpa-Ala-Arg-NH2, Knight, C.G. et al., FEBS Lett. 296, 263-266 (1992), at 37° C. in an assay buffer containing 50 mM Tris, pH 7.6, 0.2 M sodium chloride, 50 mM calcium chloride, and 0.02% Brij-35. The increase in fluorescence due to cleavage of Gly-Leu peptide bond by MMP-3 was monitored with Perkin-Elmer LS50B Fluorimeter (λex 328 nm, λem 393 nm, excitation slit 2.5, emission slit 10). Substrate and inhibitor stock solutions were made in DMF and 0.1 % HCl-DMF, respectively. For determination of Ki values for MMP-3 inhibitors, a series of intermediate inhibitor solutions were prepared in 0.1% HCl-DMF and 1 or 2 μL of the diluted inhibitor solution was mixed with 1 μL of 2 mM substrate solution in DMF in a quartz cuvette containing 2 mL of assay buffer. The enzyme (10 μL of 0.2 μM MMP-3 dilution in assay buffer) was added at the last to start the reaction. For routine measurement of a Ki value for a reversible, competitive inhibitor, the initial rates in the presence of at least four inhibitor concentrations (two concentrations above Ki and two concentrations below Ki) were measured using [S]=1 μM (<<Km) and [MMP-3]=1 nM. Under these conditions, the measured Ki, app is close to true Ki.
(§1) The K, for a competitive inhibitor is calculated using: V0/vi=(1+[I]/Ki, app) and Ki=Ki, app/(1+[S]/Km), where v0 is the initial rate in the absence of inhibitor, vi is the initial rate in the presence of inhibitor at the concentration of [I], [S] is the substrate concentration, and Km is the Michaelis constant. If slow binding is observed (i.e. if the approach to the binding equilibrium is slow), the final steady-state rate rather than the initial rate is taken as vi.

MMP-1 = biological target: T2, MMP-1 (Homo sapiens, UniProt P03956); assay: Determination of inhibition constant (Ki) for MMP-1, fluorogenic substrate; assay type: biochemical; conditions: footnote: results are identical for MMP-1, MMP-2, MMP-3, MMP-13 and MMP-14, read-out: MMP Ki app
T2 construct: The active MMP-1 was obtained by treatment of proMMP-1 with trypsin; endogenous in cells; host or cells: human rheumatoid synovial fibroblasts stimulated with macrophage-conditioned medium (secreted proenzyme purified from the medium)
T2 sequence (P03956 100-469): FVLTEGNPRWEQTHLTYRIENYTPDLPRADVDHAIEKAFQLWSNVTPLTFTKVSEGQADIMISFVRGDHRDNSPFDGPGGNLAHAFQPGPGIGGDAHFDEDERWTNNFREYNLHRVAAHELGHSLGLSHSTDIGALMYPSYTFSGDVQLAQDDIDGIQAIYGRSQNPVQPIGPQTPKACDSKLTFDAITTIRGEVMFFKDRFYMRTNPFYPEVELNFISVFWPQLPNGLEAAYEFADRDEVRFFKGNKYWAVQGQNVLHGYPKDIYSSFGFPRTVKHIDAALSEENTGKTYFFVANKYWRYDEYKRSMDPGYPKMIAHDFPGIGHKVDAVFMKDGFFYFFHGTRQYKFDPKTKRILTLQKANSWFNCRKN
Description: ProMMP-1 (EC 3.4.24.7; interstitial collagenase) was purified from culture medium of human rheumatoid synovial fibroblasts stimulated with macrophage-conditioned medium according to Okada, Y. et al., J. Biol. Chem. 261, 14245-14255 (1986). The active MMP-1 was obtained by treatment of proMMP-1 with trypsin (5 μg/mL) at 37° C. for 30 minutes, followed by addition of soybean trypsin inhibitor (50 μg/mL).
Determination of Inhibition Constant (Ki) for MMP-1 The activated MMP-1 is assayed using a fluorogenic substrate, Mca-Pro-Leu-Gly-Leu-Dpa-Ala-Arg-NH2, Knight, C. G. et al., FEBS Lett. 296, 263-266 (1992), at 37° C. in 2.0 mL of assay buffer containing 50 mM Tris, pH 7.6, 0.2 M sodium chloride, 50 mM calcium chloride, and 0.02% Brij-35. The increase in fluorescence due to cleavage of Gly-Leu peptide bond by MMP-3 was monitored with Perkin-Elmer LS50B Fluorimeter (λex328 nm, λem 393 nm, excitation slit 2.5, emission slit 10). Substrate and inhibitor stock solutions were made in DMF. For determination of Ki values for MMP-1 inhibitors, a series of intermediate inhibitor solutions were prepared in DMF and 1 or 2 μL of the diluted inhibitor solution was mixed with 1 μL of 2 mM substrate solution in DMF in a quartz cuvette containing 2 mL of assay buffer. The enzyme (10 μL of 0.2 μM MMP-3 dilution in assay buffer) was added at the last to start the reaction. For routine measurement of a Ki value for a reversible, competitive inhibitor, the initial rates in the presence of at least four inhibitor concentrations (two concentrations above Ki and two concentrations below Ki) were measured using [S]=1 μM (<<Km) and [MMP-1]=0.8 nM. Under these conditions, the measured Ki app is close to true Ki.
as §1, with “Ki” for “K,”, “v0/vi=(1+[I]/Ki,” for “V0/vi=(1+[I]/Ki,”

Row | Compound | pKi (MMP-3) | pKi (MMP-1)
1 | CNC(=O)[C@@H](Cc1cccnc1)NC(=O)[C@@H]1[C@@H](Cc2ccccc2)CCN1C(=O)[C@@H](S)C(C)C [Compound 1e, (2S,3S)-3-Benzyl-1-((S)-2-mercapto-3-methyl-butanoyl)-pyrrolidine-2-carboxylic acid ((R)-1-methylcarbamoyl-2-pyridin-3-yl-ethyl)-amide] | < 5.00 | < 5.00
2 | CNC(=O)[C@@H](NC(=O)[C@@H]1[C@H](Cc2ccccc2)CCN1C(=O)[C@@H](S)C(C)C)C(C)(C)C [Compound 1h, (2S,3R)-3-Benzyl-1-((S)-2-mercapto-3-methyl-butanoyl)-pyrrolidine-2-carboxylic acid ((S)-2,2-dimethyl-1-methylcarbamoyl-propyl)-amide] | < 5.00 | < 5.00
3 | CNC(=O)[C@H](Cc1ccc(O)cc1)NC(=O)[C@@H]1[C@@H](Cc2ccccc2)CCN1C(=O)[C@@H](S)C(C)C [Compound 1a, (2S,3S)-3-Benzyl-1-((S)-2-mercapto-3-methyl-butanoyl)-pyrrolidine-2-carboxylic acid [(S)-2-(4-hydroxy-phenyl)-1-methylcarbamoyl-ethyl]-amide] | < 5.00 | < 5.00
4 | CNC(=O)[C@@H](Cc1cccnc1)NC(=O)[C@@H]1C(Cc2ccccc2)CCN1C(=O)[C@@H](S)C(C)C (stereo in doubt) [Compound 1f, (2S,3S)-3-Benzyl-1-((S)-2-mercapto-3-methyl-butanoyl)-pyrrolidine-2-carboxylic acid ((R)-1-methylcarbamoyl-2-pyridin-3-yl-ethyl)-amide] | < 5.00 | < 5.00
5 | CNC(=O)[C@H](Cc1cccnc1)NC(=O)[C@@H]1[C@H](Cc2ccccc2)CCN1C(=O)[C@@H](S)C(C)C [Compound 1d, (2S,3R)-3-Benzyl-1-((S)-2-mercapto-3-methyl-butanoyl)-pyrrolidine-2-carboxylic acid ((S)-1-methylcarbamoyl-2-pyridin-3-yl-ethyl)-amide] | < 5.00 | < 5.00
6 | CNC(=O)[C@H](Cc1cccnc1)NC(=O)[C@@H]1[C@@H](Cc2ccccc2)CCN1C(=O)[C@@H](S)C(C)C [Compound 1c, (2S,3S)-3-Benzyl-1-((S)-2-mercapto-3-methyl-butanoyl)-pyrrolidine-2-carboxylic acid ((S)-1-methylcarbamoyl-2-pyridin-3-yl-ethyl)-amide] | < 5.00 | < 5.00
7 | CNC(=O)[C@@H](NC(=O)[C@@H]1[C@@H](Cc2ccccc2)CCN1C(=O)[C@@H](S)C(C)C)C(C)(C)C [Compound 1g, (2S,3S)-3-Benzyl-1-((S)-2-mercapto-3-methyl-butanoyl)-pyrrolidine-2-carboxylic acid ((S)-2,2-dimethyl-1-methylcarbamoyl-propyl)-amide] | < 5.00 | < 5.00
8 | CNC(=O)[C@H](Cc1ccc(O)cc1)NC(=O)[C@@H]1[C@H](Cc2ccccc2)CCN1C(=O)[C@@H](S)C(C)C [Compound 1b, (2S,3R)-3-Benzyl-1-((S)-2-mercapto-3-methyl-butanoyl)-pyrrolidine-2-carboxylic acid [(S)-2-(4-hydroxy-phenyl)-1-methylcarbamoyl-ethyl]-amide] | < 5.00 | < 5.00
